Source: US10004732B2 (Novartis AG, priority 2014, dated 2018)
pIC50: −log10 of the molar value.

Legend:
Vps34 = Vps34 (Homo sapiens, UniProt Q8NEB9); experiment: Kinase Glo Luminescent Kinase Assay (Kglo), assay C; type: biochemical; details: read-out: Assay C VPS34 IC50
PI 3-kinase gamma [1] = target: T1, PI 3-kinase gamma (Homo sapiens, UniProt P48736); experiment: Cellular U937 AKT assay K2 (HTRF); type: cell-based; details: U937 cells, K2 format; read-out: Assay K2 PI3Kγ IC50
Description: In assays K1 and K2, the compounds were tested for their ability to inhibit the production of phosphorylated AKT (Protein Kinase B) generated in a PI 3-kinase gamma isoform-dependent process in a U937 human cell line.
Cellular U937 AKT Assay for PI 3-Kinase Gamma (K2)
U937 cells are split every 3-4 days: 5×10^6 cells/flask (175 cm^2) in 40 ml.
Semi-automated preparation of cell lysates: Cells were resuspended in HBSS, seeded (200′000 cells/well/60 μl) into a 384-well plate and incubated in a humidified 37° C., 5% CO2 incubator for 1.5 hours. The compounds were diluted with HBSS and 40 μl were added to the starved cells (except for wells 24 I-P). […] The cells were then incubated for 30 minutes at 37° C. and 5% CO2. Stimulation occurred during 3 minutes by addition of 20 μl MIP1α (final 10 ng/ml, diluted in HBSS) in the incubator. Wells 24 A-H were only stimulated with HBSS.
The stimulation was then stopped by putting the cell plates on ice (filled with cold water). The cells were then centrifuged at 1200 rpm and 4° C. for 3 minutes.
80 μl of supernatant was removed. The cells were again centrifuged at 1200 rpm and 4° C. for 3 minutes. The supernatant was then removed by turning plates upside down and 30 μl of lysis buffer were added. The plate was incubated at room temperature for 30 minutes under shaking. 16 μl were then transferred to a ProxiPlate Plus 384-well. 4 μl of the master mix (each conjugate diluted 1:20 with detection reagent) were added to each well and the plate was kept in the dark at room temperature for 4 hours.

PI 3-kinase beta [2] = target: T2, PI 3-kinase beta (Homo sapiens, UniProt P42338); experiment: Kinase Glo Luminescent Kinase Assay (Kglo), assay B; type: biochemical; details: read-out: Assay B PI3Kβ IC50
Description: Kinase Glo Luminescent Kinase Assay (Kglo) for Pb 3-Kinase Alpha (A), Pb 3-Kinase Beta (B), Vps34 (C), Pb 4-Kinase Beta (D)
The Kinase Glo Luminescent Kinase Assay (Promega, Madison/Wis., USA) is a homogeneous HTS method of measuring kinase activity by quantifying the amount of ATP remaining in solution following a kinase reaction.
L-α-phosphatidylinositol (PI), provided as 10 mg/ml solution in methanol, was transferred into a glass tube and dried under a nitrogen beam. It was then resuspended in 3% OctylGlucoside (1-0-n-octyl-beta-D-glucopyranoside) by vortexing and stored at 4° C. 5 μL of a mix of PI/OctylGlucoside with the PI 3-kinase alpha and PI 3-kinase beta subtypes, or Vps34 or PI 4-kinase beta were added. Kinase reactions were started by the addition of 5 μl of an ATP-mix containing in a final volume 10 μL 10 mM TRIS-HCl pH 7.5, 3 mM MgCl2, 50 mM NaCl, 0.05% CHAPS, 1 mM DTT and 1 μM ATP at room temperature.
All fits were performed with the program XLfit4 (ID Business Solutions, Guildford, UK).

[3] = Microsomal clearance assay (M); details: intrinsic clearance in rat liver microsomes
Description: The experiments were performed in 96-well glass plates at 37° C. on an automated Tecan EVO platform. Test compounds at a concentration of 10 mM in pure DMSO were diluted 1:1000 in water to 10 μM. […] Reactions were initiated by the addition of 150 μL of a cofactor solution containing 2 mM NADPH.

PI 3-kinase gamma [4] = target: T1, PI 3-kinase gamma; experiment: TR-FRET Adapta assay, assay E; type: biochemical; details: read-out: Assay E PI3Kγ IC50
PI 3-kinase delta [5] = target: T3, PI 3-kinase delta (Homo sapiens, UniProt O00329); experiment: TR-FRET Adapta assay, assay F; details: read-out: Assay F PI3Kδ IC50
Target sequence in this assay (O00329 whole entry): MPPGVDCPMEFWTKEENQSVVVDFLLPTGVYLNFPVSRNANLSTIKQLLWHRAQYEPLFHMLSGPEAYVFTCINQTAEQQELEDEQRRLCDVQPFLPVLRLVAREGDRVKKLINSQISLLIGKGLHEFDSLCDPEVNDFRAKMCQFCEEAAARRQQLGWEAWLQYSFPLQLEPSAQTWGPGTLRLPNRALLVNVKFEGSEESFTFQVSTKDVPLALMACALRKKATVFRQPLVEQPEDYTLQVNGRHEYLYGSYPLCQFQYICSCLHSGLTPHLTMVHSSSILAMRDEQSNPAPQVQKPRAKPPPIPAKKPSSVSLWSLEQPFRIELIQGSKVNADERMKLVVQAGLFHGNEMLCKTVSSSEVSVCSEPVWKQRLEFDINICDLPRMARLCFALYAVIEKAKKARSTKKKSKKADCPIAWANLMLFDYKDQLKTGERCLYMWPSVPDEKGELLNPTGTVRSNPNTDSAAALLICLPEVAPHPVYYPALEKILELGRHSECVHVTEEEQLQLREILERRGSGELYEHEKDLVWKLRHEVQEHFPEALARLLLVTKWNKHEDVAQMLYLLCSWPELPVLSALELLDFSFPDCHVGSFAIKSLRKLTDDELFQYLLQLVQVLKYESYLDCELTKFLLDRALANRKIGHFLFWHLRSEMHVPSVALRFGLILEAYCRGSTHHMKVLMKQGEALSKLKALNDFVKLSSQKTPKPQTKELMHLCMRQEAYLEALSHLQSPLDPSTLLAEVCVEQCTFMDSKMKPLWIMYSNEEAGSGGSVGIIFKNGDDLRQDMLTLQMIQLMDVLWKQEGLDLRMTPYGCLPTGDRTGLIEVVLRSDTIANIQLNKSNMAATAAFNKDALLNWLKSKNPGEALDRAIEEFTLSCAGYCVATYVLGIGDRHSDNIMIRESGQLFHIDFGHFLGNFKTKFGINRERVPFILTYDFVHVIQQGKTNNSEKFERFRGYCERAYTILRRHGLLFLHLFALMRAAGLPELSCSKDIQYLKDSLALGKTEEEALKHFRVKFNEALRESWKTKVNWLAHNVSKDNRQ
Target sequence in this assay (P27986 461-568 partner): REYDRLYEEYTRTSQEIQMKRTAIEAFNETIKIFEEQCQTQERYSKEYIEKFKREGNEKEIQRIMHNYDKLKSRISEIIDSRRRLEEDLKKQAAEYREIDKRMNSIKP

PI 3-kinase alpha [6] = target: T4, PI 3-kinase alpha (Homo sapiens, UniProt P42336); experiment: Kinase Glo Luminescent Kinase Assay (Kglo), assay A; type: biochemical; details: read-out: Assay A PI3Kα IC50
Target sequence in this assay (P42336 whole entry): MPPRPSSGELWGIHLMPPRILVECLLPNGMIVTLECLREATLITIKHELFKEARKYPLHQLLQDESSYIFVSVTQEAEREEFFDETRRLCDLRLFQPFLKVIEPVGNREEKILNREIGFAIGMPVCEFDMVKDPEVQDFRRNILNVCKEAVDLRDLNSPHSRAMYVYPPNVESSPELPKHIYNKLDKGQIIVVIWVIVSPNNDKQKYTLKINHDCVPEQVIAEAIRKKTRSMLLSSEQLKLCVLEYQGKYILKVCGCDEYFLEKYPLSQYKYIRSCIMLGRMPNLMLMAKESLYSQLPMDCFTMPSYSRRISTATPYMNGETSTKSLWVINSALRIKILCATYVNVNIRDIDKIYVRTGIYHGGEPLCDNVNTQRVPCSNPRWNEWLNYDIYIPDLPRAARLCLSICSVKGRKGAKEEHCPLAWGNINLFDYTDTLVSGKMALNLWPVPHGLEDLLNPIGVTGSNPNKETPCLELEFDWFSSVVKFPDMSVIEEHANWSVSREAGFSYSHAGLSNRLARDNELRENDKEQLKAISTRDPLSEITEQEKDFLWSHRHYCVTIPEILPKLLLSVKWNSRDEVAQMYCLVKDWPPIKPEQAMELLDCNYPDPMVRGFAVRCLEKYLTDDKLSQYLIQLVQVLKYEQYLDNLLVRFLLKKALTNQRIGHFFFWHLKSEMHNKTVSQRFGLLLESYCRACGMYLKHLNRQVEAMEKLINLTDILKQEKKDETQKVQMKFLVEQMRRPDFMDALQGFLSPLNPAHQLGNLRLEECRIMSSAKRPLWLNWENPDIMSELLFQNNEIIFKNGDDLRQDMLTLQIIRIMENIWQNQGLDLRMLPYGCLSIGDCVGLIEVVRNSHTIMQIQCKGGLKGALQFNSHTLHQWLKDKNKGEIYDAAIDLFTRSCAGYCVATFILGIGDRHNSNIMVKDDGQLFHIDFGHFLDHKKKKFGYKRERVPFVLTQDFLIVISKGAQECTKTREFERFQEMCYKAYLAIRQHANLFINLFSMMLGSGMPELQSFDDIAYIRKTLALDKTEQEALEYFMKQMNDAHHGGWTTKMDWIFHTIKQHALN

PI 4-kinase beta = PI 4-kinase beta (Homo sapiens, UniProt Q9UBF8); experiment: Kinase Glo Luminescent Kinase Assay (Kglo), assay D; type: biochemical; details: read-out: Assay D PI4Kβ IC50
PI 3-kinase alpha [7] = target: T4, PI 3-kinase alpha; experiment: Cellular assay H1, p-Akt (S473) in Rat-1 cells, Surefire format; type: cell-based; details: non-asterisked data: version H1 (Surefire format), Rat-1 cells; read-out: Assay H PI3Kα IC50
Target sequence in this assay (P42336 whole entry): as above
Target sequence in this assay (Q63787 whole entry partner): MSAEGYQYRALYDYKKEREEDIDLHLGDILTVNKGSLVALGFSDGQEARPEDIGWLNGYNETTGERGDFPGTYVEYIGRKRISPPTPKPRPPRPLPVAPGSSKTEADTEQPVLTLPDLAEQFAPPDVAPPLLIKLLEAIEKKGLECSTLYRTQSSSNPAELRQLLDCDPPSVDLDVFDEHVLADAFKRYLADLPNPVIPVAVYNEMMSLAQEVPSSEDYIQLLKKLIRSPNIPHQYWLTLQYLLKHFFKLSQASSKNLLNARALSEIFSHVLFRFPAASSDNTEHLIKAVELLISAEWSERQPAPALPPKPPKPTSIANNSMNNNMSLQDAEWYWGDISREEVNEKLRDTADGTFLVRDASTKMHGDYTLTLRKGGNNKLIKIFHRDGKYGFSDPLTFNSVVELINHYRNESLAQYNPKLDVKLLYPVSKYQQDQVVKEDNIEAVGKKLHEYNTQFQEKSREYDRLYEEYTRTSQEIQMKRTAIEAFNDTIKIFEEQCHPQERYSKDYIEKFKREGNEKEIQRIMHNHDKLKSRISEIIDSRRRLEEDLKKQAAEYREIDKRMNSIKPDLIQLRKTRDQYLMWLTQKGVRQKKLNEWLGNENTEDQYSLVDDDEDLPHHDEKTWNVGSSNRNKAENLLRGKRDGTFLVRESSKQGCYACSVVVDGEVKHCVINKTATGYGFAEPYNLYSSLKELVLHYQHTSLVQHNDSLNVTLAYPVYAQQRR

PI 3-kinase delta [8] = target: T3, PI 3-kinase delta; experiment: Cellular assay J1, p-Akt (S473) in Rat-1 cells, Surefire format; type: cell-based; details: non-asterisked data: version J1 (Surefire format), Rat-1 cells; read-out: Assay J PI3Kδ IC50
Target sequence in this assay (O00329 whole entry): as the sequence (O00329 whole entry) above
Target sequence in this assay (Q63787 whole entry partner): as the sequence (Q63787 whole entry partner) above
Excerpt: Cellular Assays for PI 3-Kinase Alpha (H1), Beta (I1) and Delta (J1): Surefire Format
AlphaScreen (Amplified Luminescent Proximity Homogeneous Assay, ALPHA, Perkin Elmer) is a non-radioactive bead-based proximity assay technology to study biomolecular interactions in a homogenous microtiter plate format. The brand name SureFire denotes AlphaScreen assays that are adapted to quantify the phosphorylation of endogenous cellular proteins in cell lysates, by using matched antibody pairs, which consist of an anti-phospho-kinase and an anti-kinase antibody. The assay allows characterization of kinase signaling in cells as well as measurement of kinase inhibitor effects.
Using Rat-1 cells stably expressing myr-HA-tagged versions of the human PI3Kdelta, PI3Kalpha, or PI3Kbeta p110 catalytic subunit isoforms, the assay was developed as a two-plate protocol in a 384-well format.
For compound testing, the cells were seeded at a density of 4000 (Rat-1_PI3Kdelta), 7500 (Rat-1_PI3Kalpha), or 6200 (Rat-1_PI3Kbeta) cells in 20 μl complete growth medium into cell culture treated 384-well plates and were grown at 37° C./5% CO2/90% humidity for 24 h. Shortly before compound transfer, the complete medium was removed, 30 μl assay buffer (DMEM high glucose, 1×MEM NEAA, 10 mM HEPES, 2 mM L-glutamine, 0.1% (w/v) BSA) was added and 10 μl of the compound predilutions were transferred to the cells.

PI 3-kinase beta [9] = target: T2, PI 3-kinase beta; experiment: Cellular assay I1, p-Akt (S473) in Rat-1 cells, Surefire format; type: cell-based; details: non-asterisked data: version I1 (Surefire format), Rat-1 cells; read-out: Assay I PI3Kβ IC50
mTOR = mTOR (Homo sapiens, UniProt P42345); experiment: Lanthascreen kinase binding assay, assay G; details: read-out: Assay G mTOR IC50
Description: Lanthascreen™ Kinase Binding Assay for mTOR (G)
Binding of an inhibitor to the kinase competes for binding with the tracer, resulting in a loss of FRET.
50 nL of compound dilutions were dispensed onto white 384-well small volume polystyrene plate.

PI 3-kinase gamma [10] = target: T1, PI 3-kinase gamma; experiment: Cellular U937 AKT assay K1 (MSD); type: cell-based; details: U937 cells, K1 format; read-out: Assay K1 PI3Kγ IC50
[11] = test system: IL-8-induced neutrophil shape change in human whole blood; experiment: Whole blood neutrophil shape change assay (L); type: cell-based; details: Homo sapiens, Neutrophil, IL-8, human whole blood, read-out: Assay L WBSC IC50

Chain of Vps34 (Q8NEB9 whole entry, species assumed): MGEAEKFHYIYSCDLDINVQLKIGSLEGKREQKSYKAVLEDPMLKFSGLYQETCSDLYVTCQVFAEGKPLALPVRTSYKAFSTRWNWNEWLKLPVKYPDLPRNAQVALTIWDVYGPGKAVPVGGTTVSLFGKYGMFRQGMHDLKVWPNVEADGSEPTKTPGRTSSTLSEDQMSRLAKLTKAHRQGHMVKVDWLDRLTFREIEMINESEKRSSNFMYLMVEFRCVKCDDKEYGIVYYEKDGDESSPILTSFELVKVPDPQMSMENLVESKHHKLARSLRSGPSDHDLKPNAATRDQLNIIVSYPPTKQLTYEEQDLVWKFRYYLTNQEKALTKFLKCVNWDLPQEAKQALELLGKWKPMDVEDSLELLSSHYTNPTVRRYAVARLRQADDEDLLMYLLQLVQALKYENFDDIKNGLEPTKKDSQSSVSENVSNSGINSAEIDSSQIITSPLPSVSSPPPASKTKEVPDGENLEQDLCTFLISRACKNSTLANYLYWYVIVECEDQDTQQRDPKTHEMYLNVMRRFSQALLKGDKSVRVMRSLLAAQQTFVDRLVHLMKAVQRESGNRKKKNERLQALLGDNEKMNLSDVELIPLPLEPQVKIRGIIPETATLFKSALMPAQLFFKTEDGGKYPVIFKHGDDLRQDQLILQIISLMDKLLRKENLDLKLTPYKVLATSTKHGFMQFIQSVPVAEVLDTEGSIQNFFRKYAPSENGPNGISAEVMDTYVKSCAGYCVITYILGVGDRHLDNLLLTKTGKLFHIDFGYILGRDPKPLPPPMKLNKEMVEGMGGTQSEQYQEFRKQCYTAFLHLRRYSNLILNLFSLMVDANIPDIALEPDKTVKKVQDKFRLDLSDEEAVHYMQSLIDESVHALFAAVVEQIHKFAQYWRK
T1 sequence (P48736 whole entry): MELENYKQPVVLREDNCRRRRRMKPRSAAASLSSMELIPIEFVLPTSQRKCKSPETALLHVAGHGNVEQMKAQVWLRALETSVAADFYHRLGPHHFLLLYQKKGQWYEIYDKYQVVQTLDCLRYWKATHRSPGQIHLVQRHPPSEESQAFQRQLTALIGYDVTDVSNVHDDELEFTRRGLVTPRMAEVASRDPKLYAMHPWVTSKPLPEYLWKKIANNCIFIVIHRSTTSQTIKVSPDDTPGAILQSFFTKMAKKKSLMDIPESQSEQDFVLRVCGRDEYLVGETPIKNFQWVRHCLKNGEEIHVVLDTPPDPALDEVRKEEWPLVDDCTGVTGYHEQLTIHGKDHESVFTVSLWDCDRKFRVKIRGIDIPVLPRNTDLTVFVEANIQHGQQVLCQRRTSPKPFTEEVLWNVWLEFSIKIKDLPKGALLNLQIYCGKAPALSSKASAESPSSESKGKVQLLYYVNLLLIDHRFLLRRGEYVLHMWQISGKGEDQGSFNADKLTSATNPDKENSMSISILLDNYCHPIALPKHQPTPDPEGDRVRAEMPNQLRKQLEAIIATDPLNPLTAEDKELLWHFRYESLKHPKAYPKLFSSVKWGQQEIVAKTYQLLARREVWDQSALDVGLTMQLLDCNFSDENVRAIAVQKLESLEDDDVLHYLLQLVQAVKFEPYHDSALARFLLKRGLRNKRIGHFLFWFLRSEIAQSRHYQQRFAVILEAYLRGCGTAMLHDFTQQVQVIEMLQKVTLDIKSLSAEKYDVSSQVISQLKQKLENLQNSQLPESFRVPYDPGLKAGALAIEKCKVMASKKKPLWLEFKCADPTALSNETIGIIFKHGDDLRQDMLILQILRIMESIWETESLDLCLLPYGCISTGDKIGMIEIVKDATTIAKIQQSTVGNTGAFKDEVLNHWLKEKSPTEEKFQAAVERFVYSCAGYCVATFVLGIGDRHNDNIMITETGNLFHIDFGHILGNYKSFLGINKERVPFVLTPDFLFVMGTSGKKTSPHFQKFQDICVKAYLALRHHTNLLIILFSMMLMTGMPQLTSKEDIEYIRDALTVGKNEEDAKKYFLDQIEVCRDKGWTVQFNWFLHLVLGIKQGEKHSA

| SMILES | pIC50 (Vps34) | pIC50 (PI 3-kinase gamma [1]) | pIC50 (PI 3-kinase beta [2]) | Assay M RLM CI(int) [3] [µL/min/mg] | pIC50 (PI 3-kinase gamma [4]) | pIC50 (PI 3-kinase delta [5]) | pIC50 (PI 3-kinase alpha [6]) | pIC50 (PI 4-kinase beta) | pIC50 (PI 3-kinase alpha [7]) | pIC50 (PI 3-kinase delta [8]) | pIC50 (PI 3-kinase beta [9]) | pIC50 (mTOR) | pIC50 (PI 3-kinase gamma [10]) | pIC50 [11] |
| --- | --- | --- | --- | --- | --- | --- | --- | --- | --- | --- | --- | --- | --- | --- |
| Cc1ncc(-c2nc(-c3cc(S(=O)(=O)N4CC(CO)C4)ccc3C)cnc2N)s1 [Example 45.8, (1-((3-(5-Amino-6-(2-methylthiazol-5-yl)pyrazin-2-yl)-4-methylphenyl)sulfonyl)azetidin-3-yl)methanol] | 5.70 | 6.50 | 6.23 | 67 | 6.89 | 6.49 | 7.05 | 5.48 |  |  |  |  |  |  |
| COC1(C)CN(S(=O)(=O)c2ccc(C)c(-c3cnc(N)c(-c4cn(C)nc4C)n3)c2)C1 [Example 102, 3-(1,3-Dimethyl-1H-pyrazol-4-yl)-5-(5-(3-methoxy-3-methylazetidin-1-ylsulfonyl)-2-methylphenyl)pyrazin-2-amine] | < 5.00 | 6.68 | 5.74 | 75 | 6.82 | 6.05 | 6.26 | 5.23 | 5.34 | 5.88 | 5.28 | 5.54 |  |  |
| CCN1CCC[C@@H]1CNS(=O)(=O)c1ccc(C)c(-c2cnc(N)c(-c3cnc(C)s3)n2)c1 [Example 41, (R)-3-(5-Amino-6-(2-methylthiazol-5-yl)pyrazin-2-yl)-N-((1-ethylpyrrolidin-2-yl)methyl)-4-methylbenzenesulfonamide] | 5.11 | 7.62 | 6.60 | 314 | 8.00 | 7.70 | 6.96 | 5.03 | < 5.52 | > 8.52 | 6.01 |  | 7.41 |  |
| Cc1ccc(S(=O)(=O)NCC(C)(C)O)cc1-c1cnc(N)c(-c2ccoc2)n1 [Example 39, 3-(5-Amino-6-(furan-3-yl)pyrazin-2-yl)-N-(2-hydroxy-2-methylpropyl)-4-methylbenzenesulfonamide] | < 5.02 | 6.00 | 5.40 | 88 | 7.17 | 5.97 | 6.10 | 5.15 |  |  |  | < 5.02 | 6.72 |  |
| Cc1ncc(-c2nc(-c3cc(S(=O)(=O)NC[C@H]4CCOC4)ccc3C)cnc2N)s1 [Example 42, (R)-3-(5-Amino-6-(2-methylthiazol-5-yl)pyrazin-2-yl)-4-methyl-N-((tetrahydrofuran-3-yl)methyl)benzenesulfonamide] | 5.33 | 7.74 | 6.18 | 160 | 8.15 | 7.52 | 7.52 | 5.46 | 6.89 | 6.80 | 6.10 |  | 7.85 |  |
| Cc1ncc(-c2nc(-c3cc(S(=O)(=O)NCC4(O)CCOCC4)ccc3C)cnc2N)s1 [Example 45.10, 3-(5-Amino-6-(2-methylthiazol-5-yl)pyrazin-2-yl)-N-((4-hydroxytetrahydro-2H-pyran-4-yl)methyl)-4-methylbenzenesulfonamide] | 5.41 | 7.52 | 6.47 | 32 | 8.00 | 6.82 | 7.70 | 5.72 |  |  |  |  |  | 6.18 |
| Cc1ncc(-c2nc(-c3cc(S(=O)(=O)NC4CCOCC4)ccc3C)cnc2N)s1 [Example 45.3, 3-(5-Amino-6-(2-methylthiazol-5-yl)pyrazin-2-yl)-4-methyl-N-(tetrahydro-2H-pyran-4-yl)benzenesulfonamide] | 5.80 | 6.31 | 6.62 | 78 | 7.89 | 7.00 | 7.40 | 5.80 |  |  |  |  |  |  |
| Cc1ccc(S(=O)(=O)NCCC(C)(C)O)cc1-c1cnc(N)c(-c2csc(CN3CCOCC3)c2)n1 [Example 30, 3-[5-Amino-6-(5-morpholin-4-ylmethyl-thiophen-3-yl)-pyrazin-2-yl]-N-(3-hydroxy-3-methyl-butyl)-4-methyl-benzenesulfonamide] | < 5.04 |  | 5.28 | 116 | 7.62 | 7.30 | 6.52 | 5.10 | 5.42 | 6.32 | 5.78 | 5.16 | 7.01 | 6.39 |
| Cc1ccc(S(=O)(=O)NC2CC3(CC(O)C3)C2)cc1-c1cnc(N)c(-n2cncn2)n1 (centres unmarked) [Example 67, 3-(5-Amino-6-(1H-1,2,4-triazol-1-yl)pyrazin-2-yl)-N-(6-hydroxyspiro[3.3]heptan-2-yl)-4-methylbenzenesulfonamide] | 5.74 |  | 6.07 | 36 | 8.52 | 6.80 | 7.05 | 5.13 | 5.88 | 6.04 | 5.53 | 5.66 | 7.17 | 6.60 |

Second part, the compound after the results:

| pIC50 (Vps34) | pIC50 (PI 3-kinase gamma [1]) | pIC50 (PI 3-kinase beta [2]) | Assay M RLM CI(int) [3] [µL/min/mg] | pIC50 (PI 3-kinase gamma [4]) | pIC50 (PI 3-kinase delta [5]) | pIC50 (PI 3-kinase alpha [6]) | pIC50 (PI 4-kinase beta) | pIC50 (PI 3-kinase alpha [7]) | pIC50 (PI 3-kinase delta [8]) | pIC50 (PI 3-kinase beta [9]) | pIC50 (mTOR) | pIC50 (PI 3-kinase gamma [10]) | pIC50 [11] | SMILES |
| --- | --- | --- | --- | --- | --- | --- | --- | --- | --- | --- | --- | --- | --- | --- |
| < 5.04 | < 5.00 | < 5.04 |  | 7.05 | 5.92 | 5.68 | < 5.04 |  |  |  | < 5.04 |  |  | Cc1cc(-c2nc(-c3cc(S(=O)(=O)NC[C@@H]4CCNC4)ccc3C)cnc2N)ccn1 [Example 129.35, (R)-3-(5-amino-6-(2-methylpyridin-4-yl)pyrazin-2-yl)-4-methyl-N-(pyrrolidin-3-ylmethyl)benzenesulfonamide] |
| < 5.04 | < 5.00 | 5.16 | 15 | 6.96 | 6.02 | 5.89 | < 5.04 | < 5.00 |  | < 5.52 | < 5.04 | 5.21 |  | Cc1cc(-c2nc(-c3cc(S(=O)(=O)NC[C@H]4CCNC4)ccc3C)cnc2N)ccn1 [Example 129.36, (S)-3-(5-amino-6-(2-methylpyridin-4-yl)pyrazin-2-yl)-4-methyl-N-(pyrrolidin-3-ylmethyl)benzenesulfonamide] |
| < 5.02 | 5.83 | 5.18 | 85 | 6.59 | 5.60 | 5.59 | 5.38 |  |  |  | < 5.02 | 5.71 |  | Cc1ccc(S(=O)(=O)N2CC(F)(F)C2)cc1-c1cnc(N)c(-n2cncn2)n1 [Example 127.4] |
| < 5.00 | 6.55 | 5.77 | 134 | 7.35 | 6.30 | 7.00 | < 5.00 | 5.82 | 6.11 | 5.81 |  | 6.98 |  | Cc1ccc(S(=O)(=O)NCC2(C)CCCO2)cc1-c1cnc(N)c(-c2cn(C)nc2C)n1 (centres unmarked) [Example 128.4, 3-(5-Amino-6-(1,3-dimethyl-1H-pyrazol-4-yl)pyrazin-2-yl)-4-methyl-N-((2-methyltetrahydrofuran-2-yl)methyl)benzenesulfonamide] |
| < 5.00 | 6.48 | 5.52 |  |  | 6.60 | 6.00 | < 5.00 | < 5.00 | 5.79 | < 5.00 |  |  |  | CCN1CCC[C@H]1CNS(=O)(=O)c1ccc(C)c(-c2cnc(N)c(-c3cn(C)nc3C)n2)c1 [Example 128.1, (S)-3-(5-Amino-6-(1,3-dimethyl-1H-pyrazol-4-yl)pyrazin-2-yl)-N-((1-ethylpyrrolidin-2-yl)methyl)-4-methylbenzenesulfonamide] |
| < 5.04 | 5.80 | < 5.04 | 99 | 7.24 | 6.04 | 5.92 | < 5.04 | 5.37 | 5.30 | < 5.00 | 5.06 | 6.09 |  | Cc1cc(-c2nc(-c3cc(S(=O)(=O)NC[C@H]4CCCO4)ccc3C)cnc2N)ccn1 [Example 129.12, (R)-3-(5-amino-6-(2-methylpyridin-4-yl)pyrazin-2-yl)-4-methyl-N-((tetrahydrofuran-2-yl)methyl)benzenesulfonamide] |
